Measurements taken from patent US11123340B2, “Small-molecule UT-A-selective urea transport inhibitors” (The Regents of the University of California, priority 2014, dated 2021).

Assays:
rat UT-A1 = biological target: T1, rat UT-A1 (Rattus norvegicus, UniProt Q62668); assay: In vitro functional studies of UT-A1 inhibition (reversibility, urea competition, kinetics); type: cell-based; settings: for Mechanism of inhibition of urea transport: urea concentration-dependence of apparent IC50
T1 construct: expressed in transfected cells; host or cells: MDCK cells stably co-expressing rat UT-A1, human AQP1 and YFP-H148Q/V163S
T1 sequence (Q62668 1-929): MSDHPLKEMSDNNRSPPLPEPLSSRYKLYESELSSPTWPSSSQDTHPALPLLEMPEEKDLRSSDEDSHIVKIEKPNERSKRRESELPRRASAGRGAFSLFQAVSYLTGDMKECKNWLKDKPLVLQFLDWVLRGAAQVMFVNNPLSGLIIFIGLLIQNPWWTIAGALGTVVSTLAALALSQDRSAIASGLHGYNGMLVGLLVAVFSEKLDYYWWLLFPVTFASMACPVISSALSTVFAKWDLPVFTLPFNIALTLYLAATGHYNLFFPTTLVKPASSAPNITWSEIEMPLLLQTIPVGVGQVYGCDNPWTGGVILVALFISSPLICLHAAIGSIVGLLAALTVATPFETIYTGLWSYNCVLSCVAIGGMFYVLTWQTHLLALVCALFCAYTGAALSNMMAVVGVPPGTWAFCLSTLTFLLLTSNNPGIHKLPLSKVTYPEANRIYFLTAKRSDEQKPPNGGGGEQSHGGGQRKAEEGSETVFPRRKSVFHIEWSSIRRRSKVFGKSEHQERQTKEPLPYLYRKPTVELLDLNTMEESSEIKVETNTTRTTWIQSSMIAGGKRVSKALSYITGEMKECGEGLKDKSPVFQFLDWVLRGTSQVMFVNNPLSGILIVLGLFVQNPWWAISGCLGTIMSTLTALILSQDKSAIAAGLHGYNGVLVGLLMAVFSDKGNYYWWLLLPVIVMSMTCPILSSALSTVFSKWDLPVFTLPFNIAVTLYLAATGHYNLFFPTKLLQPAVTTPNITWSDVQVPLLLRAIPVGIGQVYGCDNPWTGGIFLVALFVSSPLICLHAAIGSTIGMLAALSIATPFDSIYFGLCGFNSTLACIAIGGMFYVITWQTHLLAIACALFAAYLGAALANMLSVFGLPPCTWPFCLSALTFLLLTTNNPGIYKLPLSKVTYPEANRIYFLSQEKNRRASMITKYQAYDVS
Method: Reversibility of UT-A1 inhibition was tested by pre-incubating MDCK cells expressing rat UT-A1, YFP-H148Q/V163S and AQP1 with inhibitors for 15 min (at 3 μM) and then washing the cells with PBS prior to assay. The urea concentration-dependence of UT-A1 inhibition was studied from inhibitor concentration-response data using different of urea gradients at zero initial intracellular urea concentration, or after preincubation of cells with different concentrations of urea for 10 min prior to a 1,600 mM urea gradient. The kinetics of UT-A1 inhibition was measured by adding inhibitors (3 μM) at different time points (0 to 10 min) prior to assay.
Inhibitor reversibility was studied by incubation of the UT-A1-expressing cells with compounds for 15 min and washing, followed by assay of UT-A1 inhibition. UT-A1 urea transport after inhibitor washout was the same as before inhibitor addition for all compounds (FIG. 3A), indicating full reversibility. Inhibitor competition with urea, as might occur by steric hindrance if the inhibitor and urea occupied physically overlapping sites on the UT-A1 protein, was studied from the urea concentration-dependence of apparent inhibitor IC50. Studies were done with zero urea inside cells initially and different urea concentrations outside, and with different urea concentrations inside cells initially and the same inward urea gradient.
To further evaluate the potential site of inhibitor action, the kinetics of UT-A1 inhibition was measured by assay of UT-A1 inhibition at different times after compound addition. […] To assess inhibitor membrane permeability transport of UTAinh-E02 and UTAinh-F11 across MDCK monolayers grown on porous filters by LC/MS was measured. Transport of UTAinh-F11 was much faster than that of UTAinh-E02 (FIG. 3C, right lower panel), with computed transepithelial permeability coefficients of […] and 1.1×10^−5 cm/s, respectively. […]

Pharmacokinetics in rats = type: in vivo; settings: rat; for half-life: plasma, read-out: plasma elimination t1/2 (converted)
Method: UTAinh-E02 or UTAinh-F11 was administered at 20 mg/kg intravenously by tail vein to rats. UTAinh-E02 was formulated as a 5 mg/mL saline solution containing 20% dimethylacetamide and 40% 2-hydroxypropyl γ-cyclodextrin; UTAinh-F11 was formulated as a 5 mg/mL saline solution containing 20% dimethylacetamide and 0.6 mg/mL NaOH. Blood samples were collected from the tail vein into K3EDTA mini collecting tubes (Greiner, Kremsmunster, Austria) at specified time points. Plasma samples were separated by centrifugation and kept frozen at −20 OC until analysis. Urine samples were also collected. Calibration standards were prepared in urine and plasma from control (non-treated) rats to which known amounts of UTAinh-E02 or UTAinh-F11 were added. The mixture was centrifuged for 20 min at 13,200 rpm and 90 μL of supernatant was taken for LC/MS. The solvent system consisted of a linear gradient from 5% to 95% acetonitrile containing 0.1% formic acid over 16 min (0.2 mL/min flow). Mass spectra was acquired on a mass spectrometer (Waters 2695+micromass ZQ; Waters) using electrospray (+) ionization, mass ranging from 100 to 1500 Da, 40-V cone voltage.
Several vehicles and administration routes were tested in order to give predicted therapeutic inhibitor concentrations in blood and urine. […] Because of the alkaline pH of the administered compounds the vehicle control for UTAinh-F11 was 20% dimethylacetamide and 1.2 mg/mL NaHCO3 in saline to give identical pH. […] Urine levels of UTAinh-F11 were >3 μM over 6 h.

[1] = intraperitoneal, subcutaneous or oral, up to 100 mg/kg

Mechanism of inhibition of urea transport (rat UT-A1)	half-life (Pharmacokinetics in rats; intravenous 20 mg/kg)	urine levels over 6 h (Pharmacokinetics in rats; intravenous 20 mg/kg)	Kinetics of UT-A1 inhibition (rat UT-A1; 3 μM inhibitor, different times after addition)	plasma concentration (Pharmacokinetics in rats; [1])	urine concentration (Pharmacokinetics in rats; [1])	urine level initially (Pharmacokinetics in rats; intravenous 20 mg/kg)	Compound	plasma level initially (Pharmacokinetics in rats; intravenous 20 mg/kg)
non-competitive	~60 min	> 3 µM					COc1ccc(C)cc1S(=O)(=O)Nc1ccc(Cl)c(N2CCCS2(=O)=O)c1 [UTA1inh-F11, N-[4-Chloro-3-(1,1-dioxido-1,2-thiazolidin-2-yl)phenyl]-2-methoxy-5-methylbenzene-sulfonamide]	higher initial plasma levels than UTAinh-E02
non-competitive	~270 min		occurred over minutes	< 1 µM	< 1 µM	~3 µM	CC(=O)Nc1ccc(-c2csc(-c3c[nH]c4ccccc34)n2)cc1 [UTA1inh-E02, N-(4-(2-(1H-indol-3-yl)thiazol-4-yl)phenyl)acetamide]	~6 µM
